Measurements taken from patent publication US10988459B2 (priority 2015, dated 2021).

What follows are compounds tested against human RIP1 kinase domain (2-375) (Homo sapiens (Human), UniProt Q13546) (assay: biochemical). Conditions: Table 5; apparent Ki (Morrison tight-binding fit); 50 nM RIP1 kinase domain, 50 uM ATP, 2 hours incubation; read-out: Ki.
Assay type: biochemical
Method in brief: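 Ki^app comes from Morrison tight-binding fits of fractional activity versus compound concentration. Activity was read as ADP production, via tracer displacement lowering fluorescence polarization (633 nm laser). Conditions: 2 h, 50 nM insect-cell-expressed enzyme, 50 uM ATP, 30 mM MgCl2, 1 mM DTT, 0.5% DMSO, pH 7.5 Hepes.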

Sequence of human RIP1 kinase domain (2-375) (Q13546 2-375): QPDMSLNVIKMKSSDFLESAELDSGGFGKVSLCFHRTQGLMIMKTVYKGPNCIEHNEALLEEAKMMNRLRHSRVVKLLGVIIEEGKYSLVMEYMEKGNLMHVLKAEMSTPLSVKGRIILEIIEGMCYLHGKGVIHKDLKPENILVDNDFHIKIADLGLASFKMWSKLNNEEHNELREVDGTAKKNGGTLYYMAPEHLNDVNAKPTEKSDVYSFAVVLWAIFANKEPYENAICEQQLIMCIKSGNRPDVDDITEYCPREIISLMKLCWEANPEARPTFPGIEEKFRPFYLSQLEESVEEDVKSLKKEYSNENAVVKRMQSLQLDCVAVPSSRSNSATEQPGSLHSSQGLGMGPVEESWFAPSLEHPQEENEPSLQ

SMILES | Ki
CN1C(=O)[C@@H](NC(=O)c2ncn(Cc3ccccc3)n2)CCn2nc(CCCN3CCC(F)(F)C3)cc21 [Example 739, 1-benzyl-N-[(6S)-2-[3-(3,3-difluoropyrrolidin-1-yl)propyl]-4-methyl-5-oxo-7,8-dihydro-6H-pyrazolo[1,5-a][1,3]diazepin-6-yl]-1,2,4-triazole-3-carboxamide] | 36 nM
CN1C(=O)[C@@H](NC(=O)c2ccn(Cc3ccccc3)n2)CCn2nccc21 [Example 740, 1-benzyl-N-[(6S)-4-methyl-5-oxo-7,8-dihydro-6H-pyrazolo[1,5-a][1,3]diazepin-6-yl]pyrazole-3-carboxamide] | 137 nM
Cc1cc2n(n1)CC[C@H](NC(=O)c1ccn(Cc3ccccc3)n1)C(=O)N2C [Example 741, 1-benzyl-N-[(6S)-2,4-dimethyl-5-oxo-7,8-dihydro-6H-pyrazolo[1,5-a][1,3]diazepin-6-yl]pyrazole-3-carboxamide] | 140 nM
C[C@]1(C(F)(F)F)OCc2cnc(C(=O)N[C@H]3CCc4cc(F)cc(F)c4NC3=O)cc21 [Example 746, (1S)-1-methyl-N-[(3S)-7,9-difluoro-2-oxo-1,3,4,5-tetrahydro-1-benzazepin-3-yl]-1-(trifluoromethyl)-3H-furo[3,4-c]pyridine-6-carboxamide] | 23 nM
C[C@]1(C(F)(F)F)OCc2cnc(C(=O)N[C@H]3CCc4cc(F)cc(F)c4NC3=O)nc21 [Example 747, (7S)-7-methyl-N-[(3S)-7,9-difluoro-2-oxo-1,3,4,5-tetrahydro-1-benzazepin-3-yl]-7-(trifluoromethyl)-5H-furo[3,4-d]pyrimidine-2-carboxamide] | 42 nM
C[C@@]1(C(F)(F)F)OCc2cnc(C(=O)N[C@H]3CCc4cc(F)cc(F)c4NC3=O)cc21 [Example 748, (1R)-1-methyl-N-[(3S)-7,9-difluoro-2-oxo-1,3,4,5-tetrahydro-1-benzazepin-3-yl]-1-(trifluoromethyl)-3H-furo[3,4-c]pyridine-6-carboxamide] | 14 nM
C[C@@]1(C(F)(F)F)OCc2cnc(C(=O)N[C@H]3CCc4cc(F)cc(F)c4NC3=O)nc21 [Example 749, (7R)-7-methyl-N-[(3S)-7,9-difluoro-2-oxo-1,3,4,5-tetrahydro-1-benzazepin-3-yl]-7-(trifluoromethyl)-5H-furo[3,4-d]pyrimidine-2-carboxamide] | 12 nM

Results, then the compound that gave them:

Ki | SMILES
13 nM | CN1C(=O)[C@@H](NC(=O)c2nc3n(n2)[C@H](c2ccccc2)CCC3)COc2ccccc21 [Example 735, (S)—N—((S)-5-methyl-4-oxo-2,3,4,5-tetrahydrobenzo[b][1,4]oxazepin-3-yl)-5-phenyl-5,6,7,8-tetrahydro-[1,2,4]triazolo[1,5-a]pyridine-2-carboxamide]
10 nM | CN1C(=O)[C@@H](NC(=O)c2cc3c(cn2)CO[C@]3(C)C(F)(F)F)COc2ccccc21 [Example 742, (1S)-1-methyl-N-[(3S)-5-methyl-4-oxo-2,3-dihydro-1,5-benzoxazepin-3-yl]-1-(trifluoromethyl)-3H-furo[3,4-c]pyridine-6-carboxamide]
17 nM | CN1C(=O)[C@@H](NC(=O)c2ncc3c(n2)[C@@](C)(C(F)(F)F)OC3)COc2ccccc21 [Example 743, (7S)-7-methyl-N-[(3S)-5-methyl-4-oxo-2,3-dihydro-1,5-benzoxazepin-3-yl]-7-(trifluoromethyl)-5H-furo[3,4-d]pyrimidine-2-carboxamide]
10 nM | CN1C(=O)[C@@H](NC(=O)c2cc3c(cn2)CO[C@@]3(C)C(F)(F)F)COc2ccccc21 [Example 744, (1R)-1-methyl-N-[(3S)-5-methyl-4-oxo-2,3-dihydro-1,5-benzoxazepin-3-yl]-1-(trifluoromethyl)-3H-furo[3,4-c]pyridine-6-carboxamide]
12 nM | CN1C(=O)[C@@H](NC(=O)c2ncc3c(n2)[C@](C)(C(F)(F)F)OC3)COc2ccccc21 [Example 745, (7R)-7-methyl-N-[(3S)-5-methyl-4-oxo-2,3-dihydro-1,5-benzoxazepin-3-yl]-7-(trifluoromethyl)-5H-furo[3,4-d]pyrimidine-2-carboxamide]
